According to BindingDB's records for doi:10.1111/cbdd.12826 (Universidade De Lisboa, 2016):
pIC50: −log10 of the molar value. Structures can show the parent of a compound that is named as a salt.

Target: DNA-(apurinic or apyrimidinic site) endonuclease (Homo sapiens, UniProt P27695)
Experiment: Fluorescence-Based APE1 Endonuclease Activity Assay
Settings: pH 7.5
Protocol: In this assay, the complementary single-stranded oligonucleotides at […] were mixed at a 1:1 ratio and annealed in assay buffer (50 mm Tris pH 7.5, 25 mm NaCl, 2 mm MgCl2, 1 mm DTT, 0.01% Tween-20) at 95 °C for 5 min to generatethe double-stranded substrate of APE1.[A. Simeonov, A. Kulkarni, D. Dorjsuren, A. Jadhav, M. Shen, D. R. McNeill, C. P. Austin, D. M. Wilson 3rd, PLoS ONE 2009, 4, p. e5740.] After the annealing, the reaction mixture was allowed to cool to room temperature. The assay was carried out in 96-well black plates with flat bottom (Costar, Corning Inc., NY, USA) at a finalreaction volume of 100 μL. The reaction mixtures containing 2.5 U of human recombinant APE1 (6 μL) (New England Biolabs, Ipswich, MA, USA) were incubated in the assay buffer abovementioned, in the absence or presence of the putative APE1 inhibitors (5 μL), at room temperature for 15 min. The reaction was initiated by the addition of double-stranded substrate (6 μL) to obtain the final concentration of 250 nm. DMSO was maintained at a concentration of 0.5% (v/v) in all assays (negative control). Fluorescence readings were acquired at 1-min intervals over an incubation period of 30 min at 37 °C using a SpectraMax Gemini EM microplate plate reader (Molecular Devices, Berkshire, UK) in the kinetic mode at excitation wavelength 550 nm, emission wavelength 584 nm, and cutoff at 570 nm.

Chain of DNA-(apurinic or apyrimidinic site) endonuclease (P27695 whole entry): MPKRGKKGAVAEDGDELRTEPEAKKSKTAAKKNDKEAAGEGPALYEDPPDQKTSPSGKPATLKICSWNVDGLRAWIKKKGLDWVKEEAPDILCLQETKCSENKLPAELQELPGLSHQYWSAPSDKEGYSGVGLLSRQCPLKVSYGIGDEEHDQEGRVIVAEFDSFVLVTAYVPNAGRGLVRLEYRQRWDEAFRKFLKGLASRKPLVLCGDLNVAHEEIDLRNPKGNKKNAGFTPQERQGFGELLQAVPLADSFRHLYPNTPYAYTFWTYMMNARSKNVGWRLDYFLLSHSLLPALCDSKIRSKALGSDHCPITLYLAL

pIC50	Structure (SMILES)
5.05	Nc1ccc(/N=N/c2c(N)ccc3cc(S(=O)(=O)O)cc(O)c23)c(S(=O)(=O)O)c1 [6-amino-5-[(4-amino-2-sulfophenyl)azo]-4-hydroxy-2-naphtalenesulfonic acid disodium salt (Compound 41)]
6.60	CC(=O)Nc1ccc(/C=C/c2ccc(N=C=S)c(S(=O)(=O)O)c2)c(S(=O)(=O)O)c1 [(5-(acetylamino)-2-[2-(4-isothiocyanato-3-sulfophenyl)ethenyl]benzenesulfonic acid disodium salt (Compound 22)]
5.11	Nc1ccc2cc(S(=O)(=O)O)cc(O)c2c1/N=N/c1ccc([N+](=O)[O-])cc1S(=O)(=O)O [6-amino-4-hydroxy-5-[(4-nitro-2-sulfophenyl)azo]-2-naphtalenesulfonic acid disodium salt (Compound 37)]
